Laboratory results published in patent US20030207933A1, “Compositions and methods for increasing the sensitivity of apoptosis-resistant tumor cells to inducers of apoptosis” (priority 2002, published 2003).

Experiments:
HL-60 Bcl-2 cells = assay: DNA fragmentation (release of 3H-labeled DNA fragments) in Bcl-2-transfected HL-60 cells; type: cell-based, human
Bcl-2 = assay: Western blot for expression of Bcl-2 in RIF-1 tumors in vivo; parameters: species or system mice; details: Dox alone; day 15; FIG. 16
Description: Cells were dissociated, lysed, and the nuclei and mitochondria separated by differential centrifugation. RIF-1 cells cultured in vitro were processed in a similar manner as a positive control. Equal amounts of protein extracts were separated by electrophoresis and analyzed by Western blot for expression of Bcl-2. […] The pattern of Bcl-2 expression was similar in the nuclei, although the overall levels were lower than in the mitochondria. […] Most likely, this discrepancy can be explained by the fact that this line is transfected with exogenous Bcl-2, whereas the RIF-1 line expresses endogenous Bcl-2 under control of its natural promoter. […] Alternatively, W-188 and W-143 may differ in their mechanisms of action, although this conclusion seems less likely in view of the structural similarity of these two compounds.

[1] = Body weight of RIF-1 tumor bearing mice; details: Dox 5 mg/kg alone; FIG. 15
Description: Groups of five mice each were inoculated s.c. with RIF-1 cells. The tumors were allowed to grow for 12 days to a size of 0.5 cm diameter, which was designated day 0. […] The mice were weighed and the tumor size measured every day.

mice = assay: Multiple dose toxicity with histopathological analysis; type: in vivo; details: doxorubicin 5 mg/kg alone
Procedure: In the present study, more extensive toxicity studies with histopathological analysis of seven different tissues was performed on W-143 at a commercial lab.
Groups of six mice (3 male and 3 females) each were given three i.p. injections at two day intervals of vehicle, doxorubicin 5 mg/kg alone, W-143 200 mg/kg alone or both together. On day 5 and day 15 after the last injection, mice were sacrificed, necropsied, and tissue samples processed. Tissues examined include bone marrow, liver, heart, small and large intestine, 1 sex organ, and kidney.

RIF-1 fibrosarcoma = RIF-1 fibrosarcoma tumor growth in vivo; parameters: species or system mice
Description: The present study tested in the ability of W-188 to synergize with Dox and inhibit tumor growth in vivo. The RIF-1 fibrosarcoma model was used because this model has been well-characterized, and naturally expresses high Bcl-2 levels and has a consistent growth pattern (Nahabedian, M. Y., et al., J. Natl. Can. Inst., 1988, 80:739; Chang, M-J., et al., Cancer Res., 1994, 54:5380; Srivastana, M., et al., J. Biol. Chem., 2001, 276:15481).
Groups of five mice each were inoculated s.c. with RIF-1 cells. The tumors were allowed to grow for 12 days to a size of 0.5 cm diameter, which was designated day 0. The mice were then given five i.p. injections every other day with vehicle, Dox 2.5 mg/kg, Dox 5.0 mg/kg, W-188 100 mg/kg, and Dox 5.0 mg/kg+W-188 100 mg/kg. The mice were weighed and the tumor size measured every day.
The protocol was similar to that described for the W-188 experiment in Example 8, except that in this study, mice with established tumors received only three injections of W-143 or Dox every other day starting on day 0.

HL-60 neo cells = assay: DNA fragmentation (release of 3H-labeled DNA fragments) in vector control HL-60 neo cells; type: cell-based, human
Procedure: The present study evaluated the ability of W-188 to sensitize Bcl-2-overexpressing cells to induce apoptosis. The human myelogenous leukemia, HL-60, and the human B cell leukemia, PW, normally express very low levels of Bcl-2. As a model system, W-188 and various analogs and derivatives were tested in normal HL-60 and PW cells and in Bcl-2-transfected HL-60 and PW cells that overexpress high levels of Bcl-2 (see Gilbert et al., J. Cell Physiol., 1996, 171:299).
As depicted in FIG. 4, HL-60 cells (Panel A) and PW cells (Panel B) cells were exposed to various apoptosis inducers: TNF at 5 ng/ml; etoposide at 20 μM; and UV at 0.08 J/cm^2. The release of 3H-labeled DNA fragments was measured after 5 h. Normal HL-60 and PW cells were equally sensitive to apoptosis inducers as compared with cells that were transfected with vector encoding neomycin resistance (HL-60 neo and PW neo) only. […] W-188 alone was nontoxic. The addition of W-188 to the neo cell lines caused a 1.5-2 fold increase in DNA fragmentation in response to the various apoptosis inducers.

[2] = Cytotoxicity to normal venous endothelial cells (MTT dye reduction assay); type: cell-based, human; details: human, normal venous endothelial cells, etoposide 100 μM, W-188 0 μg/mL; 6 h
AP24 = assay: Etoposide-induced activation of AP24 (AAPVase) in HL-60 and PW leukemia lines; type: cell-based, human; details: etoposide 50 μM, 3 h
overexpression of Bcl-2 = assay: Comparison with compounds reported to counteract Bcl-2; type: cell-based; details: data not shown
Description: W-188 was then compared to other compounds previously reported to counteract Bcl-2 (Marchetti, P., et al., J. Immunol., 1996, 157:4830; Hirsch, T., et al., Exp. Cell Res., 1998, 241:426).

[3] = Exp 4, etoposide 5 μM + compound 10 μM
[4] = Exp 3, etoposide 5 μM + compound 20 μM
[5] = Exp 1, etoposide 5 μM + compound 10 μM
[6] = Exp 2, etoposide 10 μM + compound 10 μM

## Cc1ccc(-c2c3nc(c(-c4ccc(C)cc4)c4ccc([nH]4)c(-c4ccc(C)cc4)c4nc(c(-c5ccc(C)cc5)c5ccc2[nH]5)C=C4)C=C3)cc1 [5,10,15,20-tetra-p-tolyl-21H,23H-porphine]
HL-60 Bcl-2 cells; [3]
  % DNA Fragmentation: 15%

## C=CC1=C(C)c2cc3[n-]c(cc4[n-]c(cc5nc(cc1n2)C(C)=C5C=C)c(C)c4CCC(=O)O)c(CCC(=O)O)c3C.[Fe+2] [Fe protoporphyrin IX]
HL-60 Bcl-2 cells; [4]
  % DNA Fragmentation: 17%

## Cl.Cl.Cl.Cl.O.O=C(O)CN1CCCN(CC(=O)O)CCN(CC(=O)O)CCCN(CC(=O)O)CC1 [1,4,8,11-tetraazacyclotetra-decane-1,4,8,11-tetraacetic acid tetrahydrochioride hydrate]
HL-60 Bcl-2 cells; [5]
  % DNA Fragmentation: 0%

## COc1cccc2c1C(=O)c1c(O)c3c(c(O)c1C2=O)C[C@@](O)(C(=O)CO)C[C@@H]3O[C@H]1C[C@H](N)[C@H](O)[C@H](C)O1 [Dox, doxorubicin, reference compound]
Bcl-2
  Bcl-2 expression in tumor cell mitochondria: expressed high levels of Bcl-2
[1]
  Body weight: toxic causing a significant weight loss on day 7-8
mice; three i.p. injections, day 5
  Histopathology: minor vacuolar changes in the liver
mice; day 15
  Histopathology: all tissues were normal
RIF-1 fibrosarcoma; Dox 5 mg/kg alone, three injections every other day, FIG. 14
  Effect on tumor growth: only a small effect on tumor growth
RIF-1 fibrosarcoma; Dox alone at 2.5 or 5 mg/kg, five i.p. injections every other day, FIG. 11
  Effect on tumor growth: very little effect on tumor growth

## CC(C)(C)c1ccc2c(c1)-c1nc3nc(nc4[nH]c(nc5[nH]c(nc-2n1)c1cc(C(C)(C)C)ccc51)c1cc(C(C)(C)C)ccc41)-c1ccc(C(C)(C)C)cc1-3 [2,9,16,23-tetra-tert-butyl-29H, 31H-phthalocyanine]
HL-60 Bcl-2 cells; [3]
  % DNA Fragmentation: 0%

## COc1cc([C@@H]2c3cc4c(cc3[C@@H](O[C@@H]3O[C@@H]5CO[C@@H](C)O[C@H]5[C@H](O)[C@H]3O)[C@H]3COC(=O)[C@H]23)OCO4)cc(OC)c1O [Etoposide]
HL-60 neo cells; Exp 1, etoposide 5 μM alone
  % DNA Fragmentation: 72%
HL-60 neo cells; Exp 2, etoposide 10 μM alone
  % DNA Fragmentation: 57%
HL-60 neo cells; Exp 3, etoposide 5 μM alone
  % DNA Fragmentation: 97%
HL-60 neo cells; Exp 4, etoposide 5 μM alone
  % DNA Fragmentation: 63%
HL-60 neo cells; Exp 5, etoposide 10 μM alone
  % DNA Fragmentation: 57%
[2]
  cytotoxicity at 6 h, 100 μM: 22 ± 3.4%
HL-60 Bcl-2 cells; Exp 1, etoposide 5 μM alone
  % DNA Fragmentation: 0%
HL-60 Bcl-2 cells; Exp 2, etoposide 10 μM alone
  % DNA Fragmentation: 0%
HL-60 Bcl-2 cells; Exp 3, etoposide 5 μM alone
  % DNA Fragmentation: 24%
HL-60 Bcl-2 cells; Exp 4, etoposide 5 μM alone
  % DNA Fragmentation: 3%
HL-60 Bcl-2 cells; Exp 5, etoposide 10 μM alone
  % DNA Fragmentation: 0%
AP24; HL-60 Bcl-2
  AP24 Activity (AAPVase, nmol/mg/hr): 14 nmol/mg/h
AP24; HL-60 neo
  AP24 Activity (AAPVase, nmol/mg/hr): 100 nmol/mg/h
AP24; PW Bcl-2
  AP24 Activity (AAPVase, nmol/mg/hr): 12 nmol/mg/h
AP24; PW neo
  AP24 Activity (AAPVase, nmol/mg/hr): 88 nmol/mg/h

## CC1=C(CCC(=O)O)c2cc3nc(cc4[nH]c(cc5[nH]c(cc1n2)c(C)c5CCC(=O)O)c(CCC(=O)O)c4C)C(CCC(=O)O)=C3C [coproporphyrin]
HL-60 Bcl-2 cells; [6]
  % DNA Fragmentation: 15%

## C1=Cc2cc3ccc(cc4ccc(cc5nc(cc1n2)C=C5)[nH]4)[nH]3 [porphyin]
HL-60 Bcl-2 cells; [6]
  % DNA Fragmentation: 10%

## CC1(C)CC(C#N)CC(C)(C)N1[O] [4-cyano tempo]
HL-60 Bcl-2 cells; [5]
  % DNA Fragmentation: 2%

## C=CC1=C(C)c2cc3[n-]c(cc4[n-]c(cc5nc(cc1n2)C(C)=C5C=C)c(C)c4CCC(=O)O)c(CCC(=O)O)c3C.[Zn+2] [Zn protoporphyrin IX]
HL-60 Bcl-2 cells; [4]
  % DNA Fragmentation: 19%

## C=CC1=C(C)c2cc3[n-]c(cc4[n-]c(cc5nc(cc1n2)C(C)=C5C=C)c(C)c4CCC(=O)O)c(CCC(=O)O)c3C.[Sn+4] [Sn protoporphyrin IX]
HL-60 Bcl-2 cells; [4]
  % DNA Fragmentation: 5%

## Cc1nc(-c2nc(C)c(C)[nH]2)[nH]c1C [2,2′-bis(4,5-dimethyl-imidazole)]
HL-60 Bcl-2 cells; [5]
  % DNA Fragmentation: 2%

## CCC1=C(C)C(=O)N/C1=C\c1[nH]c(C)c(CC)c1C [W-145]
HL-60 Bcl-2 cells; Exp 5, etoposide 10 μM + compound 10 μM
  % DNA Fragmentation: 28%

## deuterporphyrin IX dimethyl ester
HL-60 Bcl-2 cells; [5]
  % DNA Fragmentation: 8%

## C=CC1=C(C)/C(=C/c2[nH]c(Cc3[nH]c(/C=C4\NC(=O)C(C)=C4C=C)c(C)c3CCC(=O)O)c(CCC(=O)O)c2C)NC1=O [bilirubin]
HL-60 Bcl-2 cells; [6]
  % DNA Fragmentation: 17%

## N#Cc1nc[nH]c1C#N [4,5-dicyanoimidazole]
HL-60 Bcl-2 cells; [5]
  % DNA Fragmentation: 10%

## C=CC1=C(C)/C(=C/C2=NC(=C\c3[nH]c(/C=C4\NC(=O)C(C)=C4C=C)c(C)c3CCC(=O)O)/C(CCC(=O)O)=C2C)NC1=O [biliverdin]
HL-60 Bcl-2 cells; [4]
  % DNA Fragmentation: 20%

## C=CC1=C(C)c2cc3[nH]c(cc4nc(cc5[nH]c(cc1n2)c(C)c5CCC(=O)O)C(CCC(=O)O)=C4C)c(C)c3C=C [protoporphyrin IX]
HL-60 Bcl-2 cells; [6]
  % DNA Fragmentation: 3%

## CC(=O)O[C@H]1C(=O)[C@@]2(C)[C@H]([C@H](OC(=O)c3ccccc3)[C@]3(O)C[C@H](OC(=O)[C@H](O)[C@@H](NC(=O)c4ccccc4)c4ccccc4)C(C)=C1C3(C)C)[C@]1(OC(C)=O)CO[C@@H]1C[C@@H]2O [taxol]
Overexpression of Bcl-2
  Reversal of the effect of overexpression of Bcl-2, compared with W-188: inferior to W-188

## Br.Br.CCC1=C(C)c2cc3[nH]c(cc4[nH]c(cc5nc(cc1n2)C(C)=C5CC)c(C)c4CC)c(C)c3CC [etioporphyrin I dihydrobromide]
HL-60 Bcl-2 cells; [3]
  % DNA Fragmentation: 25%

## [Co+2].c1ccc2c(c1)-c1nc-2nc2[n-]c(nc3nc(nc4[n-]c(n1)c1ccccc41)-c1ccccc1-3)c1ccccc21 [cobalt (II) pthalocyanine]
HL-60 Bcl-2 cells; [5]
  % DNA Fragmentation: 9%

## CCC(C)N(C)C(=O)c1cc2ccccc2c(-c2ccccc2Cl)n1 (stereo not drawn) [PK11195]
Overexpression of Bcl-2; at 20 μM (the highest non-toxic concentration)
  Reversal of the effect of overexpression of Bcl-2: completely ineffective

## C=CC1=C(C)c2cc3[n-]c(cc4[n-]c(cc5nc(cc1n2)C(C)=C5C=C)c(C)c4CCC(=O)O)c(CCC(=O)O)c3C.O.[Fe+2] [hematin]
HL-60 Bcl-2 cells; [5]
  % DNA Fragmentation: 2%
